Results taken from patent US9133157B2, “HIV protease inhibitors” (Merck Canada Inc., priority 2011, dated 2015).
pIC50: −log10 of the molar value.

Biological target: WT HIV-1 protease (Human immunodeficiency virus type 1 group M subtype B (isolate HXB2) (HIV-1), UniProt P04585)
Test: Assay for inhibition of microbial expressed HIV protease (Procedure A, peptide substrate, HPLC fluorescence detection)
Assay type: biochemical
Settings: WT HIV-1 protease 10 pM, substrate 400 micromolar, pH 5.5, 30 min preincubation, 1 hour at 30° C.; read-out: Enzyme inhibition IC50
Outline: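 E. coli-expressed enzyme preincubated 30 min at room temperature with compound in 50 mM sodium acetate pH 5.5, 100 mM NaCl, 0.1% BSA. Reaction ran 1 h at 30° C with 400 micromolar Val-Ser-Gln-Asn-(betanaphthyl)Ala-Pro-Ile-Val substrate and 10 picomolar protease. After phosphoric acid quench, product was measured by C18 HPLC with fluorescence (ex 270/em 330 nm).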

Going from `COC(=O)N[C@H](C(=O)N[C@H](c1ccc([C@@H](CO)N(CCC(C)(C)C)S(=O)(=O)c2ccn3ncnc3c2)s1)C(F)(F)F)C(c1ccccc1)c1ccccc1` [Example 120, N-[(1S)-1-(5-{(1R)-1-[(3,3-dimethylbutyl)([1,2,4]triazolo[1,5-a]pyridin-7-ylsulfonyl)amino]-2-hydroxyethyl}thiophen-2-yl)-2,2,2-trifluoroethyl]-Nalpha-(methoxycarbonyl)-beta-phenyl-L-phenylalaninamide] to `COC(=O)N[C@H](C(=O)N[C@H](c1ccc([C@@H](CO)N(CCC(C)(C)C)S(=O)(=O)c2cn3ccnc3cn2)s1)C(F)(F)F)C(c1ccccc1)c1ccccc1` [Example 122, N-[(1S)-1-(5-{(1R)-1-[(3,3-dimethylbutyl)(imidazo[1,2-a]pyrazin-6-ylsulfonyl)amino]-2-hydroxyethyl}thiophen-2-yl)-2,2,2-trifluoroethyl]-Nα-(methoxycarbonyl)-β-phenyl-L-phenylalaninamide], the pIC50 falls from 8.52 to 8.24 (0.28 log units).

Going from `COC(=O)N[C@H](C(=O)NCc1ccc([C@@H](CO)N(CC(C)C)S(=O)(=O)c2ccc3ncsc3c2)s1)C(c1ccccc1)c1ccccc1` [Example 123, N-[(5-{(1R)-1-[(1,3-benzothiazol-6-ylsulfonyl)(2-methylpropyl)amino]-2-hydroxyethyl}thiophen-2-yl)methyl]-Nα-(methoxycarbonyl).-β-phenyl-L-phenylalaninamide] to `CC(C)CN(C(CO)c1ccc(CNC(=O)C(NC(=O)c2ccccc2)C(c2ccccc2)c2ccncc2F)s1)S(=O)(=O)c1ccc2ncsc2c1` (centres unmarked) [Example 124, N-[1-[[5-[1-(1,3-benzothiazol-6-ylsulfonyl(isobutyl)amino)-2-hydroxy-ethyl]-2-thienyl]methylcarbamoyl]-2-(3-fluoro-4-pyridyl)-2-phenyl-ethyl]benzamide], the pIC50 falls from 8.20 to 6.25 (1.95 log units). The first is the more potent here.

Going from `CC(C)CN(C(CO)c1ccc(CNC(=O)C(NC(=O)c2ccccc2)C(c2ccccc2)c2ccnc3ccccc23)s1)S(=O)(=O)c1ccc2ncsc2c1` (centres unmarked) [Example 125, N-[1-[[5-[1-(1,3-benzothiazol-6-ylsulfonyl(isobutyl)amino)-2-hydroxy-ethyl]-2-thienyl]methylcarbamoyl]-2-phenyl-2-(4-quinolyl)ethyl]benzamide] to `CC(C)CN(C(CO)c1ccc(CNC(=O)C(NC(=O)c2ccccc2)C(c2ccccc2)c2c[nH]c3ncccc23)s1)S(=O)(=O)c1ccc2ncsc2c1` (centres unmarked) [Example 126, N-[1[[5-[1-(1,3-benzothiazol-6-ylsulfonyl(isobutyl)amino)-2-hydroxy-ethyl]-2-thienyl]methylcarbamoyl]-2-phenyl-2-(1H-pyrrolo[2,3-b]pyridin-3-yl)ethyl]benzamide], the pIC50 rises from 6.39 to 8.40 (2.01 log units).

Compared with `CC(C)CN(C(CO)c1ccc(CNC(=O)C(NC(=O)c2ccccc2)C(c2ccccc2)c2cn(C)c3ccccc23)s1)S(=O)(=O)c1ccc2ncsc2c1` (centres unmarked) [Example 127, N-[1-[[5-[1-(1,3-benzothiazol-6-ylsulfonyl(isobutyl)amino)-2-hydroxy-ethyl]-2-thienyl]methylcarbamoyl]-2-(1-methylindol-3-yl)-2-phenyl-ethyl]benzamide], `CC(C)CN(C(CO)c1ccc(CNC(=O)C(NC(=O)c2ccccc2)C(c2ccccc2)c2ccccc2)s1)S(=O)(=O)c1ccc2ncsc2c1` (centres unmarked) [Example 128, N-[1-benzhydryl-2-[[5-[1-(1,3-benzothiazol-6-ylsulfonyl(isobutyl)amino)-2-hydroxy-ethyl]-2-thienyl]methylamino]-2-oxo-ethyl]benzamide] is 0.82 log units lower in pIC50: 8.10 for the first, 7.28 for the second.

Going from `CC(C)CN(C(CO)c1ccc(CNC(=O)C(NC(=O)c2ccccc2)C(c2ccccc2)c2cccc3ccncc23)s1)S(=O)(=O)c1ccc2ncsc2c1` (centres unmarked) [Example 129, N-[1-[[5-[1-(1,3-benzothiazol-6-ylsulfonyl(isobutyl)amino)-2-hydroxy-ethyl]-2-thienyl]methylcarbamoyl]-2-(8-isoquinolyl)-2-phenyl-ethyl]benzamide] to `CC(C)CN(C(CO)c1ccc(CNC(=O)C(NC(=O)c2ccccc2)C(c2ccccc2)c2c[nH]nc2-c2ccccc2)s1)S(=O)(=O)c1ccc2ncsc2c1` (centres unmarked) [Example 130, N-[1-[[5-[1-(1,3-benzothiazol-6-ylsulfonyl(isobutyl)amino)-2-hydroxy-ethyl]-2-thienyl]methylcarbamoyl]-2-phenyl-2-(3-phenyl-1H-pyrazol-4-yl)ethyl]benzamide], the pIC50 falls from 8.15 to 6.02 (2.13 log units).

First: CC(C)CN(C(CO)c1ccc(CNC(=O)C(NC(=O)c2ccccc2)C(c2ccccc2)c2cn[nH]c2)s1)S(=O)(=O)c1ccc2ncsc2c1 (centres unmarked) [Example 131, N-[1-[[5-[1-(1,3-benzothiazol-6-ylsulfonyl(isobutyl)amino)-2-hydroxy-ethyl]-2-thienyl]methylcarbamoyl]-2-phenyl-2-(1H-pyrazol-4-yl)ethyl]benzamide]
Second: CC(C)CN(C(CO)c1ccc(CNC(=O)C(NC(=O)c2ccccc2)C(c2ccccc2)c2cnc[nH]2)s1)S(=O)(=O)c1ccc2ncsc2c1 (centres unmarked) [Example 132, N-[1-[[5-[1-(1,3-benzothiazol-6-ylsulfonyl(isobutyl)amino)-2-hydroxy-ethyl]-2-thienyl]methylcarbamoyl]-2-(1H-imidazol-5-yl)-2-phenyl-ethyl]benzamide]
The pIC50 of the first is 0.43 log units higher: 7.10 for the first, 6.67 for the second.

First: CC(C)CN(C(CO)c1ccc(CNC(=O)C(NC(=O)c2ccccc2)C(c2ccccc2)c2cccc3ncccc23)s1)S(=O)(=O)c1ccc2ncsc2c1 (centres unmarked) [Example 133, N-[1-[[5-[1-(1,3-benzothiazol-6-ylsulfonyl(isobutyl)amino)-2-hydroxy-ethyl]-2-thienyl]methylcarbamoyl]-2-phenyl-2-(5-quinolyl)ethyl]benzamide]
Second: N-{(1S)-1-[5-((1R)-1-{(3,3-dimethylbutyl)[4-(1-methyl-1H-pyrazol-4-ylphenylsulfonyl]amino}-2-hydroxyethyl)-2-thienyl]-2,2,2-trifluoroethyl}-Nα-(methoxycarbonyl)-β-phenyl-L-phenylalaninamide [Example 115]
The pIC50 of the first is 0.64 log units higher: 8.32 for the first, 7.68 for the second.
